Test results reported in US8202860B2, “Methods and compositions for treating primary and secondary tumors of the central nervous system (CNS)” (Ed. Geistlich Soehne AG fuer Chemische Industrie, priority 1999, dated 2012).
Entries after “also recorded” stand apart in the source; their conditions may differ.

How the values were obtained:
[1] = cited from earlier work
[2] = test system: glioblastoma multiform-tumor cells; experiment: tissue-culture of glioblastoma multiform tumor cells
[3] = test system: glial (C6) tumor cell line; experiment: growth inhibition of glial tumor cell line in cell culture; type: cell-based, rat
Description: (§1) For the latter cell line, however, the experiments are not complete as yet. […] The effect was concentration-dependent. […] The tumor cells were inhibited selectively beginning after 30 minutes. Following 1 to 3 hours about 90% of the tumor cells were inhibited. For the cell culture, cells were used in RPM1 1640 medium and plated in Falcon flasks.

[4] = test system: neuronal (HT22) tumor cell line; experiment: growth inhibition of neuronal tumor cell line in cell culture; type: cell-based, mouse
Description: as §1

[5] = test system: mixed neuronal and glial (U373) tumor cell line; experiment: growth inhibition of mixed neuronal and glial tumor cell line in cell culture; type: cell-based, human; conditions: experiments are not complete as yet
Description: as §1

[6] = test system: CNS tumor cell lines (HT22, C6, U373); experiment: inhibition of CNS tumor cells in culture (lines reported together), cytological changes recorded over time; type: cell-based; conditions: for time after which inhibition of tumor cells started: Results section (HT22, C6)
[7] = test system: primary CNS-cells (brain cells of rat fetuses); experiment: effect on primary CNS cells in cell culture; type: cell-based
[8] = following 1 to 3 hours, Example 1
[9] = following about 1 to 2 hours, Results section

| cytological effect on primary CNS-cells ([7]; following 48 hours) | effect on CNS nerve cells, including stem cells of embryo meningeal cells ([7]; following administration of Taurolidine/Taurultam solutions) | Compound | water solubility [1] | concentration that inhibits or kills tumor cells in tissue-culture [2] | direct inhibition of growth of tumor cell line [3] | direct inhibition of growth of tumor cell line [4] | direct inhibition of growth of tumor cell line [5] | time after which inhibition of tumor cells started [6] | tumor cells inhibited [6, 8] | tumor cells inhibited [6, 9] | growth inhibition of normal/primary central nervous system cells (selectivity versus tumor cells) ([7]; primary cell lines of fetal rat central nervous system, compared to tumor cells) | effectiveness relative to Taurolidine [6] | time after which selective inhibition of tumor cells began ([6]; Example 1) |
| --- | --- | --- | --- | --- | --- | --- | --- | --- | --- | --- | --- | --- | --- |
|  |  | O=S1(=O)CCN(CN2CCS(=O)(=O)NC2)CN1 [Taurolidine, Bis-(1,1-dioxoperhydro-1,2,4-thiadiazinyl-4)methane] | up to 2% | 0.1 to 4 mg/mL | inhibit directly the growth | inhibit directly the growth | inhibit directly the growth | 10 min | about 90% | 90% |  |  |  |
| no significant cytological effect | remain unaffected | O=S1(=O)CCNCN1 [Taurultam] |  |  | inhibit directly the growth | inhibit directly the growth | inhibit directly the growth | 10 min | about 90% | 90% | required significantly higher concentrations and a significantly longer contact time for inhibition; also recorded: not significantly inhibited | almost twice as effective as Taurolidine | 30 min |
